Blank lines part the entries; values can stand above or below the molecule they belong to. The source made the active and inactive calls. No cut-off for these calls is given here.
Columns and labels:
[1] = target: T1, Glutathione hydrolase 1 proenzyme (Homo sapiens, UniProt P19440); experiment: Inhibition of GGT1 (unknown origin) assessed as GSH hydrolysis by measuring inhibition constant
[2] = target: T1, Glutathione hydrolase 1 proenzyme; experiment: Inhibition of GGT1 (unknown origin) transpeptidation assessed as inhibition constant using L-GpNA as substrate in presence of Gly-Gly
[3] = target: T1, Glutathione hydrolase 1 proenzyme; experiment: Inhibition of GGT1 (unknown origin) assessed as GSH hydrolysis at […] relative to control
[4] = target: T1, Glutathione hydrolase 1 proenzyme; experiment: Inhibition of GGT1 (unknown origin) transpeptidation at 37500 uM using L-GpNA as substrate in presence of Gly-Gly relative to control
[5] = target: T1, Glutathione hydrolase 1 proenzyme; experiment: Inhibition of GGT1 (unknown origin) transpeptidation at 9100 uM using L-GpNA as substrate in presence of Gly-Gly relative to control
[6] = Inhibition of bovine GGT1 transpeptidation assessed as inhibition constant; design: species or system Bos taurus
[7] = Inhibition of bovine GGT1 assessed as GSH hydrolysis by measuring inhibition constant; design: species or system Bos taurus
[8] = In-vivo inhibition of GGT1 in mouse assessed as increase in cystine level in plasma measured after 1 hrs; format: functional
[9] = Cmax in C57BL/6 mouse at 0.3 mg/kg, ip; format: ADME, organism-based; design: dose 0.3 mg/kg, route ip; settings: in vivo
[10] = MRT in C57BL/6 mouse at 0.3 mg/kg, ip; format: ADME, organism-based; settings: in vivo
[11] = Half life in C57BL/6 mouse at 0.3 mg/kg, ip; format: ADME, organism-based; settings: in vivo
[12] = Clearance in C57BL/6 mouse at 0.3 mg/kg, ip; format: ADME, organism-based; settings: in vivo
[13] = Volume of distribution at steady in C57BL/6 mouse at 0.3 mg/kg, ip; format: ADME, organism-based; settings: in vivo
Mus musculus [14] = experiment: In-vivo inhibition of GGT1 in mouse assessed as effect on cysteine level in plasma measured at 0.5 to 48 hrs; format: functional; settings: dose 0.2-1 mg, time 0.5-48 hrs
Mus musculus [15] = experiment: In-vivo inhibition of GGT1 in mouse assessed as effect on GSSG level in plasma measured at 0.5 to 48 hrs; format: functional; settings: dose 0.2-1 mg, time 0.5-48 hrs
Mus musculus [16] = experiment: In-vivo inhibition of GGT1 in mouse assessed as effect on GSH level in plasma measured at 0.5 to 48 hrs; format: functional; settings: dose 0.2-1 mg, time 0.5-48 hrs
Mus musculus [17] = experiment: In-vivo inhibition of GGT1 in mouse assessed as effect on cysteine level in plasma at 0.2 to 1 mg; format: functional; settings: dose 0.2-1 mg, time 0.5-48 hrs, TDE = time-dependent effect
Mus musculus [18] = experiment: In-vivo inhibition of GGT1 in mouse assessed as effect on GSSG level in plasma at 0.2 to 1 mg; format: functional; settings: dose 0.2-1 mg, time 0.5-48 hrs, TDE = time-dependent effect
Mus musculus [19] = experiment: In-vivo inhibition of GGT1 in mouse assessed as effect on GSH level in plasma at 0.2 to 1 mg; format: functional; settings: dose 0.2-1 mg, time 0.5-48 hrs, TDE = time-dependent effect
[20] = In-vivo inhibition of GGT1 in mouse assessed as decrease in cysteine level in plasma at 0.03 mg measured after 1 hrs; format: functional
[21] = In-vivo inhibition of GGT1 in mouse assessed as decrease in cystine level in plasma at 0.03 mg measured after 1 hrs; format: functional
[22] = In-vivo inhibition of GGT1 in mouse assessed as decrease in total cysteine level in plasma at 0.03 mg measured after 1 hrs; format: functional
[23] = In-vivo inhibition of GGT1 in mouse assessed as increase in GSSG level in plasma at 0.03 mg measured after 1 hrs; format: functional; settings: values are per cent of control
[24] = In-vivo inhibition of GGT1 in mouse assessed as increase in GSH level in plasma at 0.03 to 1 mg measured after 1 hrs; format: functional; settings: dose 0.03-1 mg, values are per cent of control
Mus musculus [25] = experiment: In-vivo inhibition of GGT1 in mouse assessed as decrease in total cysteine level in plasma at 0.03 mg measured after 48 hrs; format: functional
Mus musculus [26] = experiment: In-vivo inhibition of GGT1 in mouse assessed as increase in GSH level in plasma at 0.03 mg measured after 48 hrs; format: functional
[27] = In-vivo inhibition of GGT1 in mouse assessed as decrease in GSH level in plasma at 0.03 mg measured after 1 hr; format: functional
[28] = In-vivo inhibition of GGT1 in mouse assessed as decrease in GSH level in plasma at 0.03 mg measured at 24 to 48 hrs; format: functional; settings: time 24-48 hrs
[29] = In-vivo inhibition of GGT1 in mouse assessed as decrease in GSH level in plasma at 0.03 mg measured at 24 hrs; format: functional
[30] = In-vivo inhibition of GGT1 in mouse assessed as decrease in GSH level in plasma at 0.03 mg measured at 48 hrs; format: functional
[31] = In-vivo inhibition of GGT1 in mouse assessed as increase in GSH-NEM level in plasma at 0.03 mg measured after 6 hrs; format: functional; settings: values are per cent of control
[32] = In-vivo inhibition of GGT1 in mouse assessed as increase in GSSG level in plasma at 0.03 mg measured after 6 hrs; format: functional; settings: values are per cent of control
[33] = In-vivo inhibition of GGT1 in mouse assessed as increase in total GSH level in plasma at 0.03 mg measured after 6 hrs; format: functional; settings: values are per cent of control
[34] = In-vivo inhibition of GGT1 in mouse assessed as increase in cystine-NEM level in plasma measured after 1 hrs; format: functional

T1 sequence (P19440 1-380 limits assumed): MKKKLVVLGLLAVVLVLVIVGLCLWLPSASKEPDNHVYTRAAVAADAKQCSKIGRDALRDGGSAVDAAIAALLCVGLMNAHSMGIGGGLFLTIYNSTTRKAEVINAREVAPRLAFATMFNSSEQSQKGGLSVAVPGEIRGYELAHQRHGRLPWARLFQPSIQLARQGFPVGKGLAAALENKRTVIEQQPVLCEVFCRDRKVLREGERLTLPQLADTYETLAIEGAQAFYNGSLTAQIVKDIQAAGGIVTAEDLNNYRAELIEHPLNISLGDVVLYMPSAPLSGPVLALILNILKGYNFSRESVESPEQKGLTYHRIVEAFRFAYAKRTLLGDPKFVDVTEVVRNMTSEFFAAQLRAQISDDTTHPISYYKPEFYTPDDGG
T1 sequence (P19440 381-569 limits assumed): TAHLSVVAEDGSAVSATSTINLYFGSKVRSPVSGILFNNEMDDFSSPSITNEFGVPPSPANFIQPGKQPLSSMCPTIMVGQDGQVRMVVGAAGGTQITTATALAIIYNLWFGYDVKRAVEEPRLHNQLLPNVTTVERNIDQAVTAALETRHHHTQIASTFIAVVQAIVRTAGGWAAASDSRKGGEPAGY

SMILES: CCCC(N)(CCB(O)O)C(=O)O (racemic)
- Ki [1]: 703 µM
- Ki [2]: 198 µM

SMILES: CC(N)(CCB(O)O)C(=O)O (racemic)
- Ki [1]: 2.8 µM
- Ki [2]: 0.92 µM

SMILES: COc1ccc(Cc2nnc(NS(=O)(=O)c3ccccc3)s2)cc1
- Ki [2]: 68 µM

SMILES: N[C@@H](CCB(O)O)C(=O)O
- ID50 [8]: 0.002 mg
- Ki [6]: 0.005 µM
- Ki [2]: 0.005 µM
- Ki [7]: 0.025 µM
- Cmax [9]: 15300 ng/mL
- MRT [10]: 5.42 h
- half-life [11]: 3.92 h
- CL/F [12]: 0.0612 mL/min
- Vdss [13]: 20.76 mL
- inhibition (Mus musculus [14]): Dose-Dependent Effect
- inhibition (Mus musculus [15]): Dose-Dependent Effect
- inhibition (Mus musculus [16]): Dose-Dependent Effect
- inhibition (Mus musculus [17]): Tde
- inhibition (Mus musculus [18]): Tde
- inhibition (Mus musculus [19]): Tde
- inhibition (INH) [20]: 25%
- inhibition (INH) [21]: 75%
- inhibition (INH) [22]: 35%
- response, % of control [23]: 1000%
- response, % of control [24]: 250%
- inhibition (Mus musculus [25]): Active
- inhibition (Mus musculus [26]): Active
- inhibition (INH) [27]: 85%
- inhibition (INH) [28]: 33%
- inhibition (INH) [29]: <50%
- inhibition (INH) [30]: 89%
- response, % of control [31]: 500%
- response, % of control [32]: 1500%
- response, % of control [33]: 1000%
- ID50 [34]: 0.22 mg

Other lines, results leading:

- Ki [1]: > 4000 µM
- Ki [2]: 3820 µM
SMILES: N[C@@H](CCCB(O)O)C(=O)O

- inhibition [3]: 50%
- inhibition [4]: 50%
SMILES: O=C(O)CCCB(O)O

- Ki [1]: > 5000 µM
- inhibition [5]: inactive
SMILES: NCCCB(O)O

- Ki [6]: 0.045 µM
- Ki [7]: 0.077 µM
SMILES: N[C@H](CCB(O)O)C(=O)O

- Ki [1]: 874 µM
- Ki [2]: 444 µM
SMILES: CCC(N)(CCB(O)O)C(=O)O (racemic)
